Measured values: publication PMC6254286, “Quantitative Structure − Antiprotozoal Activity Relationships of Sesquiterpene Lactones ^†” (Molecules, 2009)

System: Leishmania donovani amastigotes (strain MHOM/ET/67/L82)
Assay: L. donovani axenic amastigote assay (resazurin)
Format: cell-based
Settings: Leishmania donovani, 72 h, pH 5.4, axenic amastigotes, pH 5.4, 72 h; mean of two independent measurements; read-out: IC50 L. donovani (Ldon)
Description: Leishmania donovani (axenic amastigote assay). […] Serial drug dilutions in duplicates were prepared covering a range from 30 to 0.041 µg/mL. […] The compounds used as positive controls in the various bioassays (see Table 1) were of commercial origin, with the exception of melarsoprol, which was a gift from WHO. Their purity (generally > 95%) was specified by the manufacturers.

| SMILES | IC50 [µM] |
| --- | --- |
| C=C1C(=O)O[C@H]2[C@H]1CC/C(C)=C/CC[C@@]1(C)O[C@@H]21 [Compound 34, parthenolide] | 3.56 |
| C=C1C(=O)OC2CC(C)C3C(O)CC(O)C3(C)CC12 (stereo not shown) [Compound 11] | 20.6 |
| C=C1C(=O)OC2CC3(C)C(CCC(C)=O)C3CC12 (stereo not shown) [Compound 20] | 14.6 |
| C=C1C(=O)OC2C=C(C)CCC3OC3(CO)CC(OC(=O)C3(C)OC3C)C12 (stereo not shown) [Compound 36] | 2.73 |
| C=C1C(=O)OC2C1CCC1(C)C(O)CCC(=C)C21 (stereo not shown) [Compound 31] | 6.01 |
| C=C(C(=O)OC1CC(C)=CCCC(CO)=CC2OC(=O)C(=C)C21)C(O)CO (stereo not shown) [Compound 33] | 15.2 |
| C=C1C(=O)OC2CC(C)C(CCC(C)=O)=CCC12 (stereo not shown) [Compound 17] | 23.8 |
| CC(C)CC(=O)OC1C2C(CC(C)C3C=CC(=O)C31C)OC(=O)C2C (stereo not shown) [Compound 7] | 1.48 |

System: K1 strain of P. falciparum
Assay: Antiplasmodial [3H]-hypoxanthine incorporation assay
Format: cell-based, Plasmodium falciparum
Settings: Plasmodium falciparum, K1, K1 strain (resistant to chloroquine and pyrimethamine); mean of two independent measurements; read-out: IC50 P. falciparum (Pfc)
Description: Plasmodium falciparum. Antiplasmodial activity was determined using the K1 strain of P. falciparum (resistant to chloroquine and pyrimethamine). A modification of the [3H]-hypoxanthine incorporation assay was used. Briefly, infected human red blood cells (final parasitaemia and haematocrit were 0.3% and 1.25%, respectively) in RPMI 1640 medium with 5% Albumax were exposed to serial drug dilutions in microtiter plates. After 48 hours of incubation at 37°C in a reduced oxygen atmosphere, 0.5 mCi 3H-hypoxanthine was added to each well. Cultures were incubated for a further 24 h before they were harvested onto glass-fiber filters and washed with distilled water. The radioactivity was counted using a BetaplateTM liquid scintillation counter (Wallac, Zurich, Switzerland). […] From the sigmoidal inhibition curves IC50 values were calculated. Assays were run in duplicate and repeated once.

| SMILES | IC50 [µM] |
| --- | --- |
| C=C1C(=O)O[C@H]2[C@H]1CC/C(C)=C/CC[C@@]1(C)O[C@@H]21 [Compound 34, parthenolide] | 11.9 |
| C=C1C(=O)OC2CC(C)C3C(O)CC(O)C3(C)CC12 (stereo not shown) [Compound 11] | 12.1 |
| C=C1C(=O)OC2CC3(C)C(CCC(C)=O)C3CC12 (stereo not shown) [Compound 20] | 12.7 |
| C=C1C(=O)OC2C=C(C)CCC3OC3(CO)CC(OC(=O)C3(C)OC3C)C12 (stereo not shown) [Compound 36] | 9.44 |
| C=C1C(=O)OC2C1CCC1(C)C(O)CCC(=C)C21 (stereo not shown) [Compound 31] | 12.1 |
| C=C(C(=O)OC1CC(C)=CCCC(CO)=CC2OC(=O)C(=C)C21)C(O)CO (stereo not shown) [Compound 33] | 6.32 |
| C=C1C(=O)OC2CC(C)C(CCC(C)=O)=CCC12 (stereo not shown) [Compound 17] | > 20 |
| CC(C)CC(=O)OC1C2C(CC(C)C3C=CC(=O)C31C)OC(=O)C2C (stereo not shown) [Compound 7] | 1.6 |

System: T. cruzi Tulahuen strain C2C4
Assay: In vitro activity against T. cruzi in L-6 host cells (beta-galactosidase/CPRG)
Format: cell-based, Trypanosoma cruzi
Settings: Trypanosoma cruzi, TULAHUEN, L6, 96 h, Tulahuen C2C4 in L-6 cells, 96 h; mean of two independent measurements; read-out: IC50 T. cruzi (Tcr)
Description: Trypanosoma cruzi. Rat skeletal myoblasts (L-6 cells) were seeded in 96-well microtiter plates at 2,000 cells/well in 100 µL RPMI 1640 medium with 10% FBS (fetal bovine serum) and 2 mM L-glutamine. After 24 hours the medium was removed and replaced by 100 µL per well containing 5,000 trypomastigote forms of T. cruzi Tulahuen strain C2C4 containing the β-galactosidase (Lac Z) gene. Fortyeight hours later the medium was removed from the wells and replaced by […] fresh medium with or without a serial drug dilution. Seven 3-fold dilutions were used covering a range from […]. Each drug was tested in duplicate. After 96 hours of incubation the plates were inspected under an inverted microscope to assure growth of the controls and sterility. Then the substrate CPRG/ Nonidet (50 µL) was added to all wells. A colour reaction developed within 2-6 hours and could be read photometrically at 540 nm.

| SMILES | IC50 [µM] |
| --- | --- |
| C=C1C(=O)O[C@H]2[C@H]1CC/C(C)=C/CC[C@@]1(C)O[C@@H]21 [Compound 34, parthenolide] | 10.7 |
| C=C1C(=O)OC2CC(C)C3C(O)CC(O)C3(C)CC12 (stereo not shown) [Compound 11] | 52.7 |
| C=C1C(=O)OC2CC3(C)C(CCC(C)=O)C3CC12 (stereo not shown) [Compound 20] | 39 |
| C=C1C(=O)OC2C=C(C)CCC3OC3(CO)CC(OC(=O)C3(C)OC3C)C12 (stereo not shown) [Compound 36] | 25.6 |
| C=C1C(=O)OC2C1CCC1(C)C(O)CCC(=C)C21 (stereo not shown) [Compound 31] | 28.9 |
| C=C(C(=O)OC1CC(C)=CCCC(CO)=CC2OC(=O)C(=C)C21)C(O)CO (stereo not shown) [Compound 33] | 16.8 |
| C=C1C(=O)OC2CC(C)C(CCC(C)=O)=CCC12 (stereo not shown) [Compound 17] | > 120 |
| CC(C)CC(=O)OC1C2C(CC(C)C3C=CC(=O)C31C)OC(=O)C2C (stereo not shown) [Compound 7] | 3.53 |

System: not listed separately
Assay: in vitro
Settings: rat
Description: (§1) Trypanosoma brucei rhodesiense and cytotoxicity against L6 cells. Minimum Essential Medium with Earle’s salts (50 µL) supplemented with 0.2 mM 2-mercapto-ethanol, 1 mM Na-pyruvate and 15% heat-inactivated horse serum was added to each well of a 96-well microtiter plate. […] Then 10^4 bloodstream forms of Trypanosoma brucei rhodesiense STIB 900 in 50 µL of medium were added to each well and the plate incubated at 37°C under a 5% CO2 atmosphere for 72 hours. […] The plate was then read in a Spectramax Gemini XS microplate fluorometer (Molecular Devices Corporation, Sunnyvale, CA, USA) using an excitation wavelength of 536 nm and emission wavelength of 588 nm. Fluorescence development was measured and expressed as percentage of the control. Data were transferred into the graphic programme Softmax Pro (Molecular Devices) which calculated IC50 values. Cytotoxicity was assessed using a similar protocol and rat skeletal myoblasts (L6 cells). […] All following steps were according to the T. b. rhodesiense protocol.

| SMILES | IC50 at 72 h [µM] |
| --- | --- |
| C=C1C(=O)OC2CC3(C)C(CCC(C)=O)C3CC12 (stereo not shown) [Compound 20] | 19.8 |

Same assay, conditions: rat, IC50 Cytotoxicity (L6), L6 rat skeletal myoblasts, 72 h; mean of two independent measurements

| SMILES | IC50 [µM] |
| --- | --- |
| C=C1C(=O)OC2C=C(C)CCC3OC3(CO)CC(OC(=O)C3(C)OC3C)C12 (stereo not shown) [Compound 36] | 13.6 |
| C=C1C(=O)OC2C1CCC1(C)C(O)CCC(=C)C21 (stereo not shown) [Compound 31] | 33.2 |

Same assay, conditions: rat, L6 cells (rat skeletal myoblasts)

| SMILES | IC50 at 72 h [µM] |
| --- | --- |
| C=C1C(=O)O[C@H]2[C@H]1CC/C(C)=C/CC[C@@]1(C)O[C@@H]21 [Compound 34, parthenolide] | 7.24 |
| C=C1C(=O)OC2CC(C)C3C(O)CC(O)C3(C)CC12 (stereo not shown) [Compound 11] | 31.9 |
| C=C(C(=O)OC1CC(C)=CCCC(CO)=CC2OC(=O)C(=C)C21)C(O)CO (stereo not shown) [Compound 33] | 10.2 |
| C=C1C(=O)OC2CC(C)C(CCC(C)=O)=CCC12 (stereo not shown) [Compound 17] | 179 |
| CC(C)CC(=O)OC1C2C(CC(C)C3C=CC(=O)C31C)OC(=O)C2C (stereo not shown) [Compound 7] | 4.58 |

System: Trypanosoma brucei rhodesiense STIB 900
Assay: In vitro activity against T. brucei rhodesiense bloodstream forms (Alamar blue)
Format: cell-based
Settings: Trypanosoma brucei, 72 h, bloodstream forms STIB 900, 72 h; mean of two independent measurements; read-out: IC50 T. brucei rhodes. (Tbr)
Description: as §1

| SMILES | IC50 [µM] |
| --- | --- |
| C=C1C(=O)O[C@H]2[C@H]1CC/C(C)=C/CC[C@@]1(C)O[C@@H]21 [Compound 34, parthenolide] | 0.388 |
| C=C1C(=O)OC2CC(C)C3C(O)CC(O)C3(C)CC12 (stereo not shown) [Compound 11] | 18.3 |
| C=C1C(=O)OC2CC3(C)C(CCC(C)=O)C3CC12 (stereo not shown) [Compound 20] | 15.9 |
| C=C1C(=O)OC2C=C(C)CCC3OC3(CO)CC(OC(=O)C3(C)OC3C)C12 (stereo not shown) [Compound 36] | 14.3 |
| C=C(C(=O)OC1CC(C)=CCCC(CO)=CC2OC(=O)C(=C)C21)C(O)CO (stereo not shown) [Compound 33] | 1.3 |
| C=C1C(=O)OC2CC(C)C(CCC(C)=O)=CCC12 (stereo not shown) [Compound 17] | 62.1 |
| CC(C)CC(=O)OC1C2C(CC(C)C3C=CC(=O)C31C)OC(=O)C2C (stereo not shown) [Compound 7] | 0.911 |

Same assay, conditions: bloodstream forms STIB 900, 72 h; mean of two independent measurements; read-out: IC50 T. brucei rhodes. (Tbr)

| SMILES | IC50 [µM] |
| --- | --- |
| C=C1C(=O)OC2C1CCC1(C)C(O)CCC(=C)C21 (stereo not shown) [Compound 31] | 17.8 |
